From ChEMBL document CHEMBL4017512 (J Med Chem, 2017)

What was measured:
[1] = Cytotoxicity against human HCT116/VM46 cells assessed as reduction in cell viability after 72 hrs by phosphatase assay; format: cell-based; details: HCT-116/VM46, 72 h
L1210 = test: Antiproliferative activity against mouse L1210 cells after 72 hrs by phosphatase assay; format: functional, cell-based; details: L1210, 72 h
HCT-116 = test: Antiproliferative activity against human HCT116 cells after 72 hrs by phosphatase assay; format: functional, cell-based; details: HCT-116, 72 h

Structure (SMILES) | IC50 (L1210) | IC50 (HCT-116) | IC50 [1]
CC[C@]1(NC(=O)c2nc3ccccc3s2)C[C@H]2CN(CCc3c([nH]c4ccccc34)[C@@](C(=O)OC)(c3cc4c(cc3OC)N(C)[C@H]3[C@@](O)(C(=O)OC)[C@H](OC(C)=O)[C@]5(CC)C=CCN6CC[C@]43[C@@H]65)C2)C1 | 180 nM | 80 nM | 470 nM
CC[C@]1(NC(=O)c2ccc(OC)cc2)C[C@H]2CN(CCc3c([nH]c4ccccc34)[C@@](C(=O)OC)(c3cc4c(cc3OC)N(C)[C@H]3[C@@](O)(C(=O)OC)[C@H](OC(C)=O)[C@]5(CC)C=CCN6CC[C@]43[C@@H]65)C2)C1 | 0.25 nM | 0.3 nM | 7.6 nM
CC[C@]1(N=[N+]=[N-])C[C@H]2CN(CCc3c([nH]c4ccccc34)[C@@](C(=O)OC)(c3cc4c(cc3OC)N(C)[C@H]3[C@@](O)(C(=O)OC)[C@H](OC(C)=O)[C@]5(CC)C=CCN6CC[C@]43[C@@H]65)C2)C1 | – | – | 5500 nM
CC[C@]1(NC(=O)/C=C/c2ccccc2)C[C@H]2CN(CCc3c([nH]c4ccccc34)[C@@](C(=O)OC)(c3cc4c(cc3OC)N(C)[C@H]3[C@@](O)(C(=O)OC)[C@H](OC(C)=O)[C@]5(CC)C=CCN6CC[C@]43[C@@H]65)C2)C1 | 0.8 nM | 0.9 nM | 20 nM
CC[C@]1(NC(=O)c2ccc3c(c2)CCC3)C[C@H]2CN(CCc3c([nH]c4ccccc34)[C@@](C(=O)OC)(c3cc4c(cc3OC)N(C)[C@H]3[C@@](O)(C(=O)OC)[C@H](OC(C)=O)[C@]5(CC)C=CCN6CC[C@]43[C@@H]65)C2)C1 | 5 nM | 5.6 nM | 11 nM
CC[C@]1(NC(=O)c2ccc3cccc(OC)c3c2)C[C@H]2CN(CCc3c([nH]c4ccccc34)[C@@](C(=O)OC)(c3cc4c(cc3OC)N(C)[C@H]3[C@@](O)(C(=O)OC)[C@H](OC(C)=O)[C@]5(CC)C=CCN6CC[C@]43[C@@H]65)C2)C1 | 10 nM | 13 nM | 70 nM
CC[C@]1(NC(=O)C(C)(C)C)C[C@H]2CN(CCc3c([nH]c4ccccc34)[C@@](C(=O)OC)(c3cc4c(cc3OC)N(C)[C@H]3[C@@](O)(C(=O)OC)[C@H](OC(C)=O)[C@]5(CC)C=CCN6CC[C@]43[C@@H]65)C2)C1 | 2800 nM | 3600 nM | 4100 nM
CC[C@]1(NC(=O)c2cc(OC)c(OC)c(OC)c2)C[C@H]2CN(CCc3c([nH]c4ccccc34)[C@@](C(=O)OC)(c3cc4c(cc3OC)N(C)[C@H]3[C@@](O)(C(=O)OC)[C@H](OC(C)=O)[C@]5(CC)C=CCN6CC[C@]43[C@@H]65)C2)C1 | 0.09 nM | 0.1 nM | 2.4 nM
CC[C@@H]1C[C@H]2CN(CCc3c([nH]c4ccccc34)[C@@](C(=O)OC)(c3cc4c(cc3OC)N(C)[C@H]3[C@@](O)(C(=O)OC)[C@H](OC(C)=O)[C@]5(CC)C=CCN6CC[C@]43[C@@H]65)C2)C1 [ROSEAMINE] | – | – | 600 nM
CC[C@]1(N)C[C@H]2CN(CCc3c([nH]c4ccccc34)[C@@](C(=O)OC)(c3cc4c(cc3OC)N(C)[C@H]3[C@@](O)(C(=O)OC)[C@H](OC(C)=O)[C@]5(CC)C=CCN6CC[C@]43[C@@H]65)C2)C1 | – | – | > 10000 nM

Continued, in another order:

IC50 (L1210) | IC50 (HCT-116) | Structure (SMILES) | IC50 [1]
5.2 nM | 6.5 nM | CC[C@]1(NC(=O)c2ccc(Oc3ccccc3)cc2)C[C@H]2CN(CCc3c([nH]c4ccccc34)[C@@](C(=O)OC)(c3cc4c(cc3OC)N(C)[C@H]3[C@@](O)(C(=O)OC)[C@H](OC(C)=O)[C@]5(CC)C=CCN6CC[C@]43[C@@H]65)C2)C1 | 50 nM
5 nM | 3.8 nM | CC[C@]1(NC(=O)c2ccc3occc3c2)C[C@H]2CN(CCc3c([nH]c4ccccc34)[C@@](C(=O)OC)(c3cc4c(cc3OC)N(C)[C@H]3[C@@](O)(C(=O)OC)[C@H](OC(C)=O)[C@]5(CC)C=CCN6CC[C@]43[C@@H]65)C2)C1 | 25 nM
0.7 nM | 0.6 nM | CC[C@]1(NC(=O)c2ccc3c(c2)ncn3C)C[C@H]2CN(CCc3c([nH]c4ccccc34)[C@@](C(=O)OC)(c3cc4c(cc3OC)N(C)[C@H]3[C@@](O)(C(=O)OC)[C@H](OC(C)=O)[C@]5(CC)C=CCN6CC[C@]43[C@@H]65)C2)C1 | 8 nM
0.5 nM | 0.7 nM | CC[C@]1(NC(=O)c2ccsc2)C[C@H]2CN(CCc3c([nH]c4ccccc34)[C@@](C(=O)OC)(c3cc4c(cc3OC)N(C)[C@H]3[C@@](O)(C(=O)OC)[C@H](OC(C)=O)[C@]5(CC)C=CCN6CC[C@]43[C@@H]65)C2)C1 | 7.7 nM
0.6 nM | 0.8 nM | CC[C@]1(NC(=O)c2cccc(OC)c2)C[C@H]2CN(CCc3c([nH]c4ccccc34)[C@@](C(=O)OC)(c3cc4c(cc3OC)N(C)[C@H]3[C@@](O)(C(=O)OC)[C@H](OC(C)=O)[C@]5(CC)C=CCN6CC[C@]43[C@@H]65)C2)C1 | 8.7 nM
25 nM | 3.5 nM | CC[C@]1(NC(=O)c2ccc(CN)cc2)C[C@H]2CN(CCc3c([nH]c4ccccc34)[C@@](C(=O)OC)(c3cc4c(cc3OC)N(C)[C@H]3[C@@](O)(C(=O)OC)[C@H](OC(C)=O)[C@]5(CC)C=CCN6CC[C@]43[C@@H]65)C2)C1 | 470 nM
6.2 nM | 6.4 nM | CC[C@]1(NC(=O)c2cccc(C(F)(F)F)c2)C[C@H]2CN(CCc3c([nH]c4ccccc34)[C@@](C(=O)OC)(c3cc4c(cc3OC)N(C)[C@H]3[C@@](O)(C(=O)OC)[C@H](OC(C)=O)[C@]5(CC)C=CCN6CC[C@]43[C@@H]65)C2)C1 | 40 nM
3.9 nM | 3.5 nM | CC[C@]1(NC(=O)c2cnco2)C[C@H]2CN(CCc3c([nH]c4ccccc34)[C@@](C(=O)OC)(c3cc4c(cc3OC)N(C)[C@H]3[C@@](O)(C(=O)OC)[C@H](OC(C)=O)[C@]5(CC)C=CCN6CC[C@]43[C@@H]65)C2)C1 | 65 nM
0.6 nM | 0.6 nM | CC[C@]1(NC(=O)c2ccc3cnccc3c2)C[C@H]2CN(CCc3c([nH]c4ccccc34)[C@@](C(=O)OC)(c3cc4c(cc3OC)N(C)[C@H]3[C@@](O)(C(=O)OC)[C@H](OC(C)=O)[C@]5(CC)C=CCN6CC[C@]43[C@@H]65)C2)C1 | 7.3 nM
500 nM | 580 nM | CC[C@]1(NS(=O)(=O)c2c(C)cc(C)cc2C)C[C@H]2CN(CCc3c([nH]c4ccccc34)[C@@](C(=O)OC)(c3cc4c(cc3OC)N(C)[C@H]3[C@@](O)(C(=O)OC)[C@H](OC(C)=O)[C@]5(CC)C=CCN6CC[C@]43[C@@H]65)C2)C1 | 710 nM
40 nM | 30 nM | CC[C@]1(NC(=O)c2ccc(C3CCCCC3)cc2)C[C@H]2CN(CCc3c([nH]c4ccccc34)[C@@](C(=O)OC)(c3cc4c(cc3OC)N(C)[C@H]3[C@@](O)(C(=O)OC)[C@H](OC(C)=O)[C@]5(CC)C=CCN6CC[C@]43[C@@H]65)C2)C1 | 60 nM
35 nM | 15 nM | CC[C@]1(NC(=O)c2ccc3c(c2)CCN3C(=O)OC(C)(C)C)C[C@H]2CN(CCc3c([nH]c4ccccc34)[C@@](C(=O)OC)(c3cc4c(cc3OC)N(C)[C@H]3[C@@](O)(C(=O)OC)[C@H](OC(C)=O)[C@]5(CC)C=CCN6CC[C@]43[C@@H]65)C2)C1 | 90 nM
